Results: ChEMBL document CHEMBL1201862, “PubChem BioAssay data set” (2004)
Where “and” joins values, the source holds several entries; their conditions need not be identical. Equal entries are not always repeated. Values belong to the compound of their own block, whether it stands above or below them. Calls of active or inactive are those of the source.

What was measured:
Assay type in all cases: functional
Melanocortin receptor 4 = Melanocortin receptor 4 (Homo sapiens, UniProt P32245); experiment: MC4R antagonist potency on cAMP, dose response, cell-based, TR-FRET, biased antagonists (AID 602298);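 further: antagonist potency against agonist-stimulated cAMP production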
[1] = nonselective inhibitors of cellular cAMP signaling, dose response, counter-screen for MC4R biased antagonist project, cell-based, TR-FRET cAMP detection (AID 602305);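 further: U2OS cells stimulated with forskolin near its EC80 as the cAMP inducer; potency is for inhibition of forskolin-stimulated cAMP signaling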
[2] = biological target: Protein disulfide-isomerase (Homo sapiens, UniProt P07237); experiment: PDI inhibitors, insulin aggregation turbidity, dose response, biochemical, absorbance, cherry-picked samples (AID 602350)
[3] = biological target: DNA dC->dU-editing enzyme APOBEC-3G (Homo sapiens, UniProt Q9HC16); experiment: Dose Response confirmation of small molecule APOBEC3G DNA Deaminase Inhibitors via a fluorescence-based single-stranded DNA deaminase assay. [Related pubchem assays (depositor defined):AID493012, AID493028]
[4] = SAR analysis of small molecule activators of Apaf-1 using a LZ-Caspase-9/Caspase-3 Fluorescent Selectivity assay - Set 2.; conditions: read-out: EC50_Mean
[5] = biological target: T1, Apoptotic protease-activating factor 1 (Homo sapiens, UniProt O14727); experiment: SAR analysis of small molecule Activators of Apaf-1 in a Fluorescent assay.; conditions: read-out: EC50_Mean
T1 sequence (O14727 whole entry): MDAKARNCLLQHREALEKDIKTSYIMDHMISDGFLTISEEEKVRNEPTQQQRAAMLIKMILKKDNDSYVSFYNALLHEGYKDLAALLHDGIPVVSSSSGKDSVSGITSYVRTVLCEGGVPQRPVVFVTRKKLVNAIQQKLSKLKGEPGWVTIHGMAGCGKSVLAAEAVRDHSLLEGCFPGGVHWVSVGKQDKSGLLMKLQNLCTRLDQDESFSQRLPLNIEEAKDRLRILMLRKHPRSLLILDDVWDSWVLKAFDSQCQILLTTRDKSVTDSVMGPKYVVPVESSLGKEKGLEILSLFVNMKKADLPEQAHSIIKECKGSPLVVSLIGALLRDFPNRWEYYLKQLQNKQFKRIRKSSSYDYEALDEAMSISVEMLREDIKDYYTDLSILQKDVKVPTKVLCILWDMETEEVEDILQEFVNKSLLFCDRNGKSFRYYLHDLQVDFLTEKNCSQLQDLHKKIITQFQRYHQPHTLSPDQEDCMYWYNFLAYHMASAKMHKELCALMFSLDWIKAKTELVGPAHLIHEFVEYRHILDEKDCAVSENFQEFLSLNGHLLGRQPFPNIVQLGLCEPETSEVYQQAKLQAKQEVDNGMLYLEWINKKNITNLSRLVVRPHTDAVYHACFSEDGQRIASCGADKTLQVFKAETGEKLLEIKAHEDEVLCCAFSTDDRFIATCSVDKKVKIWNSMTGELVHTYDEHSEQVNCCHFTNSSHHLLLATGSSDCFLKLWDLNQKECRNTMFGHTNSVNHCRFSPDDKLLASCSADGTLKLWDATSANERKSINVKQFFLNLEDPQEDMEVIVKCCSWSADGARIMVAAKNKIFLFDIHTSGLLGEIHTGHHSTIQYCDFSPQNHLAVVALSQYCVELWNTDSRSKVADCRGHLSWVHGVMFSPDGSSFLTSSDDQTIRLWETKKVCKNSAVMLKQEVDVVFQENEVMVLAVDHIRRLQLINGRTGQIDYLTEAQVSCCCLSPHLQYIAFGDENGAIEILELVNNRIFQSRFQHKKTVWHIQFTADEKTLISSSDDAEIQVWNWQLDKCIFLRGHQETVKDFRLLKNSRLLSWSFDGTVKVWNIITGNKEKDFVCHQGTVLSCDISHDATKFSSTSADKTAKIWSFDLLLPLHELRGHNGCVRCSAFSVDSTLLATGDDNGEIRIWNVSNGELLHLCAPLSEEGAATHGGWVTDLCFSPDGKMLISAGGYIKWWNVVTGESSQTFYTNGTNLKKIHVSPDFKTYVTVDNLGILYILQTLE

[6] = biological target: T1, Apoptotic protease-activating factor 1; experiment: SAR analysis of small molecule Activators of Apaf-1 in a Fluorescent assay - set 2.; conditions: read-out: EC50_Mean
[7] = biological target: T2, Neuropeptides B/W receptor type 1 (Homo sapiens, UniProt P48145); experiment: GPR7 antagonist potency, late-stage follow-up, cell-based, fluorescence, dose response, set 5 (AID 588566)
T2 sequence (P48145 whole entry): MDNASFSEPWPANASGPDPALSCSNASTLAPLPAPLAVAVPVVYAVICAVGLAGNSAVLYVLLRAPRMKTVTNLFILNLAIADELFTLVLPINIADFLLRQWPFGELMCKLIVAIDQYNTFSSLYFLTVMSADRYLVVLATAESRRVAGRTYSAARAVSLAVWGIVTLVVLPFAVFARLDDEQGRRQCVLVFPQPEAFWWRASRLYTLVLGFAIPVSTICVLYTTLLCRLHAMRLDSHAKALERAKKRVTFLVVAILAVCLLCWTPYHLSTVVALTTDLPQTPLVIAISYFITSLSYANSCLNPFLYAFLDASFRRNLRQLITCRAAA

[8] = biological target: Melanin-concentrating hormone receptor 1 (Homo sapiens, UniProt Q99705); experiment: Late-stage fluorescence-based counterscreen for antagonists of the G-protein coupled receptor 7 (GPR7): cell-based dose response assay to identify antagonists of the melanin-concentrating hormone receptor 1 (MCHR1) Set 5.
[9] = biological target: Multidrug resistance protein CDR2 (Candida albicans (strain SC5314 / ATCC MYA-2876) (Yeast), UniProt P78595); experiment: CaCDR2 efflux pump inhibitors in yeast, dose response, S. cerevisiae AD1-8u, singleplex, Cherry Pick1 hits (AID 588604)
Multidrug resistance protein CDR2, sequence (P78595 whole entry): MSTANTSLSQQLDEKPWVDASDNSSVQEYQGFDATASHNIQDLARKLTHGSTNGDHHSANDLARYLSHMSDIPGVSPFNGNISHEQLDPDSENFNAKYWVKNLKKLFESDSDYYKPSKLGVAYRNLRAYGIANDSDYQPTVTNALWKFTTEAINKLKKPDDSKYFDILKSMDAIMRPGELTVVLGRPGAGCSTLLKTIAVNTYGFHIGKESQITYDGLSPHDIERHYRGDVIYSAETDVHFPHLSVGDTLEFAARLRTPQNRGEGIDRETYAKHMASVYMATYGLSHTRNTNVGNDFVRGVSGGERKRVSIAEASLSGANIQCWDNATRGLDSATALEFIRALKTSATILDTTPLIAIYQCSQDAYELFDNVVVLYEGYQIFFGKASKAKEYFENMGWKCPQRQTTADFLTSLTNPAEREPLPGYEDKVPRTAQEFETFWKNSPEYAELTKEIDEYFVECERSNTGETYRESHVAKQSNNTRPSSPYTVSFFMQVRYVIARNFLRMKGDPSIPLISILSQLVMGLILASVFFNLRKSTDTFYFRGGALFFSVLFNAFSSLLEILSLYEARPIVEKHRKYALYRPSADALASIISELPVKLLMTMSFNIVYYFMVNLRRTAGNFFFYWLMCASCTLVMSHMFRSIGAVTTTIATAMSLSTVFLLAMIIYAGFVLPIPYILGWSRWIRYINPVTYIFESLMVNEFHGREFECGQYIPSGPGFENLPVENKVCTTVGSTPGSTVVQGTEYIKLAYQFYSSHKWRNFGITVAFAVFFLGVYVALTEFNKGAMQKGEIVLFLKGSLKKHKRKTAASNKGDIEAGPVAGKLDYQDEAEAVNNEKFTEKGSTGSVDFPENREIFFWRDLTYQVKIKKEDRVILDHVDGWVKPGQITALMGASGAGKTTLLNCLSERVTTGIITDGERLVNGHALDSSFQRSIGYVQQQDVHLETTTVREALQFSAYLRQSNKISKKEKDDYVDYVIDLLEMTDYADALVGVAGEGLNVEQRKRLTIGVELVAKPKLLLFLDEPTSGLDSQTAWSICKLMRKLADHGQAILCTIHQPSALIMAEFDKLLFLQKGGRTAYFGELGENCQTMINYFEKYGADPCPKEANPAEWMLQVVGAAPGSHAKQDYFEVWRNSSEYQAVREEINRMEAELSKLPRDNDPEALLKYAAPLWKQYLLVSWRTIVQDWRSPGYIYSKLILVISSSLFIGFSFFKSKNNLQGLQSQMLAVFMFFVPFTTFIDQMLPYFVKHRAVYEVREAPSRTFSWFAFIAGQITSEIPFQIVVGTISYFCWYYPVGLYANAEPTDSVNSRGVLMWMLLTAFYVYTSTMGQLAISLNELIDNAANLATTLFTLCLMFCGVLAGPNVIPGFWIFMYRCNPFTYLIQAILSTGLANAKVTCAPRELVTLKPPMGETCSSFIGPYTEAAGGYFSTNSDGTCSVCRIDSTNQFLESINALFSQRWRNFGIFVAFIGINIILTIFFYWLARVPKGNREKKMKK

Melanocortin receptor 4, sequence (P32245 whole entry): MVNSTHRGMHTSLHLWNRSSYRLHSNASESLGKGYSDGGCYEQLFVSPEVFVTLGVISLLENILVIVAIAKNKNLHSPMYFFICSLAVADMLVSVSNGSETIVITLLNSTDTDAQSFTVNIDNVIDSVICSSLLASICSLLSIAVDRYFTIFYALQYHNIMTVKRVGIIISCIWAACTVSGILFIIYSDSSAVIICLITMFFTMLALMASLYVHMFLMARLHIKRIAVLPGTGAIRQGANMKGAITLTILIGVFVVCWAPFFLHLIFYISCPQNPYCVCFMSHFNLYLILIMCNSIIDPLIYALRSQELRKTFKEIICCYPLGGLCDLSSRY
DNA dC->dU-editing enzyme APOBEC-3G, sequence (Q9HC16 whole entry): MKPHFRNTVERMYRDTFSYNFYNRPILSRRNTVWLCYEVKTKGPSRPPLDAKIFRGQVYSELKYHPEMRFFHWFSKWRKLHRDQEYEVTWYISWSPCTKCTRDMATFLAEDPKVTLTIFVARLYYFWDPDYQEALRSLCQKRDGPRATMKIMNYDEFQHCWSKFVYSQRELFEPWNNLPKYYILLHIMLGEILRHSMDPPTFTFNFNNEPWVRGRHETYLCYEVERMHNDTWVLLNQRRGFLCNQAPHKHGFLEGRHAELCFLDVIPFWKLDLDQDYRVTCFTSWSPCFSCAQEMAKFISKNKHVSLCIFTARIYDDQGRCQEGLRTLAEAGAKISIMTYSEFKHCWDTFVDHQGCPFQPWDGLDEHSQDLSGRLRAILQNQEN
Melanin-concentrating hormone receptor 1, sequence (Q99705 whole entry): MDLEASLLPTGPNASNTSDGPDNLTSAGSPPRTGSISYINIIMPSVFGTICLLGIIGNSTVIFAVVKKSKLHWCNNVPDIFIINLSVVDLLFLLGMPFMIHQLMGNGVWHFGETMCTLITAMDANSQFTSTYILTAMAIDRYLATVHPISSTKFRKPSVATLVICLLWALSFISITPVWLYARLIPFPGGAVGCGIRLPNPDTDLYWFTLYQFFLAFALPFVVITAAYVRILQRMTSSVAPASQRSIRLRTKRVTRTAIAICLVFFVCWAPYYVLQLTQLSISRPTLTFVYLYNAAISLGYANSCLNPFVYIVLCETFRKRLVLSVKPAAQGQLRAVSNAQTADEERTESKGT
Protein disulfide-isomerase, sequence (P07237 whole entry): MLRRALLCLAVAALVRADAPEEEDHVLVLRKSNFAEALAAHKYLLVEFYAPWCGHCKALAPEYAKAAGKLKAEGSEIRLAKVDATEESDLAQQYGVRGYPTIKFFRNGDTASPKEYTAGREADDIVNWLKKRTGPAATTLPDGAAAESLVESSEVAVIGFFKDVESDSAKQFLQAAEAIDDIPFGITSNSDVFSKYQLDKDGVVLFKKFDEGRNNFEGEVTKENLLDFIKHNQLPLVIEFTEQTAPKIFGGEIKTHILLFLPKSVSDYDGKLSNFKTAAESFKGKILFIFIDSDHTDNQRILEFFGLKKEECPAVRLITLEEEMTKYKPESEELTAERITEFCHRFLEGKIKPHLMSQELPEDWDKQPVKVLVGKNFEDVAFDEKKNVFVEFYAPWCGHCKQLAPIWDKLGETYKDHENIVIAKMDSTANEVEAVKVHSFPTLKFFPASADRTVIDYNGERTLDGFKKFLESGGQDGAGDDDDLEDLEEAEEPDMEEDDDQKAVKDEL

SMILES: Cn1ccs/c1=N\C(=O)c1ccc(S(C)(=O)=O)c([N+](=O)[O-])c1
IC50 (Melanocortin receptor 4): > 64.6 µM (inactive)
IC50 [1]: > 64.6 µM (inactive)

AC50 [2]: 19.5 µM (active)
SMILES: C[C@H](CO)N1C[C@H](C)[C@@H](CN(C)S(=O)(=O)c2ccc(F)cc2)Oc2ccc(NC(=O)Cc3cn(C)c4ccccc34)cc2C1=O

SMILES: O=C(O)C1CC(c2ccc(F)cc2)=NO1 (stereo not given)
IC50 [3]: 10.9 µM (active)
EC50 [4]: > 100 µM (inactive) and > 99 µM (inactive)
EC50 [5]: 6.69 µM (active)
EC50 [6]: 6.39 µM (active) and 3.86 µM (active) and > 99 µM (inactive)

IC50 [7]: 5 µM (active)
IC50 [8]: > 20 µM (inactive)
SMILES: CCOc1ccc(Sc2cnn(Cc3cccc4ccccc34)c(=O)c2Cl)cc1

SMILES: COc1ccc2nccc(/C=C/c3ccnc4ccc(OC)cc34)c2c1
EC50 [9]: 14 µM (active)
